One test concerns Aspergillus fumigatus. Nature of the test: Antifungal susceptibility testing (NCCLS, MIC/MFC) against A. fumigatus. Details: Lowest [Active]: unit not given here. Conditions: for CFU for MFC at 200 / CFU for MFC at 300 / Lowest [Active] / CFU for MFC at 100: A. fumigatus (48 hours); for CFU for MFC at 200: concentration 200; for CFU for MFC at 300: concentration 300; for Lowest [Active]: concentrations 300, 200, 100, unit not given, N/A = no active concentration; for Lowest MIC / Lowest MFC: A. fumigatus; for Lowest MIC: lowest concentration that appears to have no growth; for Lowest MFC: lowest concentration that kills >= 98% of the cells in the well; for CFU for MFC at 100: concentration 100. The class given is cell-based. The procedure: (§1) Antifungal susceptibility testing was performed following the NCCLS guidelines with minor modifications. Briefly, a suspension of Candida albicans cells was prepared from pure cultures grown overnight on yeast-malt extract (YM) agar at 35° C. Several small colonies were removed from a YM agar plate and transferred to 5 ml of 0.85% saline. The cells were suspended by 15 seconds of vortexing and the cell density of the resulting suspension was determined using a spectrophotometer. The cell density was adjusted by addition of 0.85% saline until the transmittance matched that of a 0.5 McFarland standard when measured at a wavelength of 530 nm. An aliquot of this suspension was diluted 1:1000 in RPMI-MOPS to yield a working suspension. A similar suspension of Aspergillus fumigatus spores was obtained by using spores stored at […] in 0.85% saline. These spores were diluted in 0.85% saline to match the McFarland standard transmittance. This suspension was then further diluted 1:50 in RPMI-MOPS to produce the working inoculum suspension.
(§2) Dilution series of the test compounds were made in RPMI-MOPS containing 2% DMSO. An aliquot of each dilution was added in duplicate to the wells of a sterile 96-well, flat bottom microtiter plate. Then, an aliquot of either the C. albicans cell suspension or the A. fumigatus spore suspension were added to each well for a final volume of 200 μl. The plates were then incubated at […]. […] A similar determination was made for the A. fumigatus plates after 48 hours. […] The numbers of colony forming units (CFU) were counted and these values used to calculate the percent survival of cells or spores in inocula relative to the number of CFUs in the working inoculum suspension. The minimum fungicidal concentration (MFC) was the lowest concentration of test compound with a percent survival of less than 2%.

Another test relates to Candida albicans. Nature of the test: Antifungal susceptibility testing (NCCLS, MIC/MFC) against C. albicans. The class given is cell-based. Details: Lowest [Active]: unit not given here. Conditions: for CFU for MFC at 300 / Lowest [Active] / CFU for MFC at 100 / CFU for MFC at 200: C. albicans (19 hours); for CFU for MFC at 300: concentration 300; for Lowest [Active]: concentrations 300, 200, 100, unit not given, N/A = no active concentration; for Lowest MIC: lowest concentration that appears to have no growth; for Lowest MFC: lowest concentration that kills >= 98% of the cells in the well; for CFU for MFC at 100: concentration 100; for CFU for MFC at 200: concentration 200. As to the method:
as §1, §2

A further test relates to adult male Swiss mice. As to the kind of experiment: Antispermatogenic screen: single gavage dose to male mice, testes weight and Spermatogenic Index at 72 h. In kind it is in vivo. Conditions: day 3 (72 h). The procedure:
The compounds of the invention were tested in mice for their effects on spermatogenesis three days after a single oral dose by the procedure described in Cook et al (1995) below. Compounds active in this test have been shown also to be anti-fertility compounds.
Compounds were screened for antispermatogenic activity by dosing male mice on day 1 with a gavage dose of control vehicle, positive control (compound 1) or compound of the invention. At 72 h after dosing, animals were killed and the testes were excised, trimmed of fat, and weighed. One testis was examined histologically and rated for spermatogenic potential using the Spermatogenic Index (J. M. Whitsett, P. F. Noden, J. Cherry and A. D. Lawton, J. Reprod. Fertil., 72, 277 (1984), which is a semiquantitative estimate of the sperm producing ability of the testes The index is based on histological appearance of the spermatogenic cells in the seminiferous tubules. A scale of 1 to 6 is used with 5 to 6 being the normal status. A second assessment was based on the weight of the testes.
Tables 1 and 2 show pertinent biological results in terms of the change in testes weight (TW) and spermatogenic index (SI) relative to a control containing only the administration vehicle, but no indenopyridine. In Tables 1 and 2, R^3 and R^4 refer to structures Ib, where R^3 is in the para position; R^1 is ethyl; R^2 is methyl; and R^5 is hydrogen.

[1] abbreviates: Table 2, 0.3 mg/kg single gavage dose, vehicle 1% Tween20 in water.
The mark [2] stands for this setting: Table 2, 1 mg/kg single gavage dose, vehicle 1% Tween20 in water.
[3] abbreviates: Table 2, 3 mg/kg single gavage dose, vehicle 1% Tween20 in water.
The mark [4] stands for this setting: Table 2, 10 mg/kg single gavage dose, vehicle 1% Tween20 in water.
Where [5] appears, read: racemic compounds, 1 mg/kg single gavage dose, vehicle 90% water, 7% Tween20, 3% ethanol.
Where [6] appears, read: racemic compounds, 3 mg/kg single gavage dose, vehicle 90% water, 7% Tween20, 3% ethanol.
[7] abbreviates: racemic compounds, 10 mg/kg single gavage dose, vehicle 90% water, 7% Tween20, 3% ethanol.
[8] abbreviates: Table 2, 30 mg/kg single gavage dose, vehicle 1% Tween20 in water.

Molecules are shown by their SMILES. Marks after values point to notes of the source that are not given here.

`CCN1CCC2C(C1)c1ccccc1C2c1ccccc1.Cl` (racemic) [Compound 4587-037]: in the test with Aspergillus fumigatus, the “CFU for MFC at 200” value is given as “Cidal (Cidal = >98% killed)”; the “CFU for MFC at 300” value is recorded as “Static* (Static = well looked clear, but <98% killed)”; the “Lowest [Active]” value stood at 200. In the test on Candida albicans, the “CFU for MFC at 300” value is “Cidal (Cidal = >98% killed)” and the “Lowest [Active]” value was determined as 300.

As to `CCN1CCC2C(C1)c1ccc(C)cc1C2c1ccc(CO)cc1.Cl` (racemic) [Compound 4587-055], in the test with Candida albicans, the “CFU for MFC at 300” value is “Static (Static = well looked clear, but <98% killed)” and the “Lowest [Active]” value turned out to be 300.

Take `CCN1CCC2C(C1)c1ccc(C)cc1C2c1ccc(C)cc1.Cl` (stereo not shown) [Compound 4587-003]: in the test on Aspergillus fumigatus, the “Lowest MIC” value is 25 µg/mL and the “Lowest MFC” value is 25 µg/mL. Also, in the test on Candida albicans (C. albicans), the “Lowest MIC” value worked out at 50 µg/mL and the “Lowest MFC” value came out at 75 µg/mL.

For the compound `CCN1CCC2=C(c3ccc(C)cc3)c3cc(C)ccc3C2C1.Cl` (racemic) [Compound 4587-040], in the test with Aspergillus fumigatus, the “CFU for MFC at 100” value is given as “Cidal (Cidal = >98% killed)”, the “CFU for MFC at 200” value is “Cidal (Cidal = >98% killed)”, the “CFU for MFC at 300” value is reported as “Cidal (Cidal = >98% killed)” and the “Lowest [Active]” value turned out to be 100. In the test with Candida albicans, the “CFU for MFC at 100” value is given as “Cidal (Cidal = >98% killed)”, the “CFU for MFC at 200” value is given as “Cidal (Cidal = >98% killed)”, the “CFU for MFC at 300” value was “Cidal (Cidal = >98% killed)” and the “Lowest [Active]” value came to 100.

Turning to `CCN1CCC2C(C1)c1cc(I)c(C)cc1C2c1ccc(C(=O)OC)cc1` (single isomer, unassigned) [18 (l)], the “SI change (%) (Spermatogenic Index, % change from vehicle control)” value in the test with adult male Swiss mice (setting [1]) was −34%*; with adult male Swiss mice (setting [2]) it was −66%*; with adult male Swiss mice (setting [3]), −71%*; in the test with adult male Swiss mice (setting [4]), −72%*. Besides, the “TW change (%) (testes weight, % change from vehicle control)” value (shortened to “TW change (%)”) in the test with adult male Swiss mice (setting [1]) is −11%*; with adult male Swiss mice (setting [2]), −21%*; in the test on adult male Swiss mice (setting [3]), −27%*; with adult male Swiss mice (setting [4]), −31%*.

As for `CCN1CCC2C(C1)c1ccc(C)cc1C2c1ccc(OC)cc1.Cl` (racemic) [Compound 4587-029], in the test with Aspergillus fumigatus, the “CFU for MFC at 100” value was “Cidal (Cidal = >98% killed)”, the “CFU for MFC at 200” value is “Cidal (Cidal = >98% killed)”, the “CFU for MFC at 300” value is listed as “Cidal (Cidal = >98% killed)” and the “Lowest [Active]” value is 100. Moreover, in the test on Candida albicans, the “CFU for MFC at 200” value is “Static (Static = well looked clear, but <98% killed)”; the “CFU for MFC at 300” value is on record as “Cidal (Cidal = >98% killed)”; the “Lowest [Active]” value is listed as 200.

With `CCN1CCC2C(C1)c1ccc(C)cc1C2c1ccc(C#N)cc1.Cl` (racemic) [Compound 4587-060], in the test on Aspergillus fumigatus, the “CFU for MFC at 200” value is “Cidal (Cidal = >98% killed)” and the “Lowest [Active]” value is 200.

For `CCN1CCC2C(C1)c1cc(I)c(C)cc1C2c1ccc(C(=O)OC)cc1.Cl` (stereo not shown) [Compound 4587-073d], in the test with Aspergillus fumigatus, the “CFU for MFC at 100” value is reported as “Cidal (Cidal = >98% killed)”, the “CFU for MFC at 200” value is “Cidal (Cidal = >98% killed)”, the “CFU for MFC at 300” value is on record as “Cidal (Cidal = >98% killed)” and the “Lowest [Active]” value is listed as 100. For the same compound, in the test on Candida albicans, the “CFU for MFC at 100” value is “Static (Static = well looked clear, but <98% killed)”; the “CFU for MFC at 200” value was “Cidal (Cidal = >98% killed)”; the “CFU for MFC at 300” value is given as “Cidal (Cidal = >98% killed)”; the “Lowest [Active]” value is recorded as 100.

For `CCN1CCC(C(c2ccc(C)cc2)c2cccc(C)c2)CC1.Cl` (stereo not shown) [Compound 4587-006], in the test on Candida albicans, the “CFU for MFC at 300” value is “Static (Static = well looked clear, but <98% killed)” and the “Lowest [Active]” value is 300.

Consider `CCN1CCC2C(C1)c1ccc(C)cc1C2c1ccc(C)cc1.Cl` (stereo not shown) [Compound 4587-002d], for which, in the test on Aspergillus fumigatus, the “Lowest MIC” value is 50 µg/mL and the “Lowest MFC” value is 50 µg/mL. In addition, in the test on Candida albicans (C. albicans), the “Lowest MFC (class word)” value is listed as “fungistatic (Fungistatic = compound with an MIC, but <98% of cells killed)” and the “Lowest MIC” value was 50 µg/mL.

Regarding `CCN1CCC2C(C1)c1ccc(C)cc1C2c1ccc(C)cc1.Cl` (stereo not shown) [Compound 4587-002l], in the test with Aspergillus fumigatus, the “Lowest MIC” value stood at 50 µg/mL and the “Lowest MFC” value was 75 µg/mL. Further, in the test on Candida albicans (C. albicans), the “Lowest MIC” value came to 75 µg/mL and the “Lowest MFC” value amounted to 100 µg/mL.

For `CC(=O)N1CCN(c2ccc(OCC3COC(Cn4ccnc4)(c4ccc(Cl)cc4Cl)O3)cc2)CC1` (stereo not shown) [Ketaconazole, reference compound], the “Lowest MIC” value came out at 8 µg/mL with Aspergillus fumigatus and 32 µg/mL in the test on Candida albicans (C. albicans).

On to `CCN1CC[C@@H]2[C@@H](c3ccc(C(=O)O)cc3)c3cc(C)c(Cl)cc3[C@@H]2C1.Cl` (racemic) [Compound 20, (4aRS,5SR,9bRS)-2-Ethyl-8-Chloro-7-Methyl-2,3,4,4a,5,9b-Hexahydro-5-(4-carboxylphenyl)-1H-Indeno[1,2-c]pyridine Hydrochloride], for which the “SI change (%) (Spermatogenic Index, % change from vehicle control)” value is given as −55%* with adult male Swiss mice (setting [5]), −66%* in the test on adult male Swiss mice (setting [6]) and −72%* in the test on adult male Swiss mice (setting [7]). Moreover, the figures for the “TW change (%)” value in the test with adult male Swiss mice (setting [5]), in the test with adult male Swiss mice (setting [6]) and in the test on adult male Swiss mice (setting [7]) were −16%, −23% and −22%, respectively.

Take `CCN1CC[C@@H]2[C@@H](c3ccc(C(=O)O)cc3)c3cc(C)c(I)cc3[C@@H]2C1.Cl` (racemic) [Compound 17, (4aRS,5SR,9bRS)-2-Ethyl-2,3,4,4a,5,9b-hexahydro-8-iodo-7-methyl-5-(4-carboxyphenyl)-1H-indeno[1,2-c]pyridine Hydrochloride]: the “SI change (%) (Spermatogenic Index, % change from vehicle control)” value with adult male Swiss mice (setting [5]) is −67%*; in the test with adult male Swiss mice (setting [6]), −66%*; with adult male Swiss mice (setting [7]) it was −76%*. Also, the entries for the “TW change (%)” value in the test with adult male Swiss mice (setting [5]), in the test with adult male Swiss mice (setting [6]) and with adult male Swiss mice (setting [7]) were −18%, −9% and −32%*, respectively.

For `CCN1CC[C@@H]2[C@@H](c3ccc(C(=O)OC)cc3)c3cc(C)ccc3[C@@H]2C1.Cl` (single isomer, unassigned) [3 (l), (1)-Enantiomer of (4aRS,5SR,9bRS)-2-Ethyl-2,3,4,4a,5,9b-hexahydro-7-methyl-5-(4-carbomethoxyphenyl)-1H-indeno[1,2-c]pyridine Hydrochloride], the “SI change (%) (Spermatogenic Index, % change from vehicle control)” value in the test on adult male Swiss mice (setting [2]) is 3%; in the test on adult male Swiss mice (setting [3]), −2%; in the test on adult male Swiss mice (setting [4]), −33%*; in the test with adult male Swiss mice (setting [8]) it was −64%*. The “TW change (%)” value is listed as 8% in the test on adult male Swiss mice (setting [2]), −12% in the test on adult male Swiss mice (setting [3]), −13% in the test on adult male Swiss mice (setting [4]) and −30%* in the test with adult male Swiss mice (setting [8]).

Values taken from patent US8193213B2, “Spermicidal and/or antifungal composition and methods of using the same” (priority 2003, dated 2012).
